# From ChEMBL document CHEMBL1201862, “PubChem BioAssay data set” (2004)
# Active and inactive are the calls of the source.
# What was measured:
# [1] = biological target: Sphingosine 1-phosphate receptor 5 (Homo sapiens, UniProt Q9H228); test: Late stage counterscreen assay for S1P4 antagonists: Fluorescence dose response cell-based screening assay for antagonists of the Sphingosine 1-Phosphate Receptor 5 (S1P5). [Related pubchem assays (depositor defined):AID1510, AID1524, AID1692, AID1853, AID2332, AID489009, AID489017]; format: functional
# [2] = biological target: Sphingosine 1-phosphate receptor 3 (Homo sapiens, UniProt Q99500); test: Late stage counterscreen assay for S1P4 antagonists: Fluorescence dose response cell-based screening assay for antagonists of the Sphingosine 1-Phosphate Receptor 3 (S1P3). [Related pubchem assays (depositor defined):AID1510, AID1524, AID1692, AID1853, AID2332, AID489009, AID489017]; format: functional
# [3] = biological target: Sphingosine 1-phosphate receptor 1 (Homo sapiens, UniProt P21453); test: Late stage counterscreen assay for S1P4 antagonists: Fluorescence dose response cell-based screening assay for antagonists of the Sphingosine 1-Phosphate Receptor 1 (S1P1). [Related pubchem assays (depositor defined):AID1510, AID1524, AID1692, AID1853, AID2332, AID489009, AID489017]; format: functional
# [4] = biological target: T1, Sphingosine 1-phosphate receptor 4 (Homo sapiens, UniProt O95977); test: S1P4 receptor antagonists, human, late-stage follow-up, cell-based, fluorescence, synthesized analogues (AID 2346); format: functional
# T1 sequence (O95977 whole entry): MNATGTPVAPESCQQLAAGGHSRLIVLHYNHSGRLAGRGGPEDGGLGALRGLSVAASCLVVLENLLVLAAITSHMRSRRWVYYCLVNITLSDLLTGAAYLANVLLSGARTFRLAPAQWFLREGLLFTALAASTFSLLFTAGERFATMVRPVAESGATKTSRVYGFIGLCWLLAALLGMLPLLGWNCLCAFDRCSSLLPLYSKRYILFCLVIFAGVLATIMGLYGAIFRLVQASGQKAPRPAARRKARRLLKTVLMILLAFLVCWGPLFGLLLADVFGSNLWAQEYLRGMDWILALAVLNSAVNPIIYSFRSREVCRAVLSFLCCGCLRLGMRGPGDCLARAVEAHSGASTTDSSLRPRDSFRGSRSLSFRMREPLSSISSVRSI
# [5] = biological target: Sphingosine 1-phosphate receptor 2 (Homo sapiens, UniProt O95136); test: Late stage counterscreen assay for S1P4 antagonists: Fluorescence dose response cell-based screening assay for antagonists of the Sphingosine 1-Phosphate Receptor 2 (S1P2). [Related pubchem assays (depositor defined):AID1510, AID1524, AID1692, AID1853, AID2332, AID489009, AID489017]; format: functional
# [6] = biological target: Nucleotide-binding oligomerization domain-containing protein 1 (Homo sapiens, UniProt Q9Y239); test: SAR analysis of compounds that inhibit NOD1 - Set 3. [Related pubchem assays (depositor defined):AID1566, AID1575, AID1578, AID1849, AID1852, AID2333, AID2335, AID2466]; format: functional
# Tumor necrosis factor = Tumor necrosis factor (Homo sapiens, UniProt P01375); test: TNFa-triggered NF-kB activation inhibitors, SAR follow-up, cell-based, set 3 (AID 2801); format: functional
# HEK293 = test: SAR analysis of compounds that are cytotoxic to HEK293 - Set 3. [Related pubchem assays (depositor defined):AID1575, AID1578, AID1848, AID1849, AID2001, AID2333, AID2334, AID2335, AID2337, AID2469]; format: functional, cell-based; settings: Homo sapiens
# [7] = biological target: Nucleotide-binding oligomerization domain-containing protein 2 (Homo sapiens, UniProt Q9HC29); test: NOD2 signaling inhibitors, analog potency, SAR follow-up, cell-based, set 3 (AID 2799); format: functional
# [8] = biological target: T2, RNA-binding protein pos-1 (Caenorhabditis elegans, UniProt G5EF15); test: inhibitors of POS-1/mex-3 RNA binding, dose response, biochemical, fluorescence polarization (AID 1964);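 also: purified POS-1 fused to maltose binding protein made in E. coli; potency of compounds blocking POS-1 binding to fluorescent RNA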
# T2 sequence (G5EF15 whole entry): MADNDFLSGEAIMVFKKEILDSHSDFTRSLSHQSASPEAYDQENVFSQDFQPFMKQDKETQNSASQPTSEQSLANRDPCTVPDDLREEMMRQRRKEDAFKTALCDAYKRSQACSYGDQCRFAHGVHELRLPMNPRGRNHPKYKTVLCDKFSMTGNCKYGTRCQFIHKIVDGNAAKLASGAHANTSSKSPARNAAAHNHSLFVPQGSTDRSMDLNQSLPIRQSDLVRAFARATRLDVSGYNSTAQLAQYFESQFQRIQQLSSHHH
# [9] = biological target: T3, Zinc finger protein mex-5 (Caenorhabditis elegans, UniProt Q9XUB2); test: MEX-5/TCR-2 RNA interaction inhibitors, dose response, biochemical, C. elegans, fluorescence polarization (AID 1960)
# T3 sequence (Q9XUB2 whole entry): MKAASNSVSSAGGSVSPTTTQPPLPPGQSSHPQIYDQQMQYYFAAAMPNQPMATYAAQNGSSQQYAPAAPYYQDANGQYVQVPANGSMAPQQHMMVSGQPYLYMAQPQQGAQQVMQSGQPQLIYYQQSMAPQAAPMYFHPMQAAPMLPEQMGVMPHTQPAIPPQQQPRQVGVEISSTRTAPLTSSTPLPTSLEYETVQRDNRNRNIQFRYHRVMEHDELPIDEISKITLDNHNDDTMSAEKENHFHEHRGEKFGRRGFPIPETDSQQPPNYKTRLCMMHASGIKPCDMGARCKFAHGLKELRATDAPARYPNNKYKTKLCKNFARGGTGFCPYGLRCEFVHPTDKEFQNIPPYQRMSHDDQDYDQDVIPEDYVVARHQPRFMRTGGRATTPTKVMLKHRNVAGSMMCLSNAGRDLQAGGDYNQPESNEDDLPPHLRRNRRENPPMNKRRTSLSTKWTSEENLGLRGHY
# [10] = biological target: FAD-linked sulfhydryl oxidase ALR (Homo sapiens, UniProt P55789); test: inhibitors of human ALR sulfhydryl oxidase, dose response, biochemical, H2O2 detection, luminescence, cherry-pick (AID 493248)
# [11] = biological target: Lysine-specific demethylase 4C (Homo sapiens, UniProt Q9H3R0); test: GASC-1 (JMJD2C) histone demethylase inhibitors, dose response, biochemical, DELFIA europium, cherry-picked samples (AID 488835); format: functional
# Lysine-specific demethylase 4C, sequence (Q9H3R0 whole entry): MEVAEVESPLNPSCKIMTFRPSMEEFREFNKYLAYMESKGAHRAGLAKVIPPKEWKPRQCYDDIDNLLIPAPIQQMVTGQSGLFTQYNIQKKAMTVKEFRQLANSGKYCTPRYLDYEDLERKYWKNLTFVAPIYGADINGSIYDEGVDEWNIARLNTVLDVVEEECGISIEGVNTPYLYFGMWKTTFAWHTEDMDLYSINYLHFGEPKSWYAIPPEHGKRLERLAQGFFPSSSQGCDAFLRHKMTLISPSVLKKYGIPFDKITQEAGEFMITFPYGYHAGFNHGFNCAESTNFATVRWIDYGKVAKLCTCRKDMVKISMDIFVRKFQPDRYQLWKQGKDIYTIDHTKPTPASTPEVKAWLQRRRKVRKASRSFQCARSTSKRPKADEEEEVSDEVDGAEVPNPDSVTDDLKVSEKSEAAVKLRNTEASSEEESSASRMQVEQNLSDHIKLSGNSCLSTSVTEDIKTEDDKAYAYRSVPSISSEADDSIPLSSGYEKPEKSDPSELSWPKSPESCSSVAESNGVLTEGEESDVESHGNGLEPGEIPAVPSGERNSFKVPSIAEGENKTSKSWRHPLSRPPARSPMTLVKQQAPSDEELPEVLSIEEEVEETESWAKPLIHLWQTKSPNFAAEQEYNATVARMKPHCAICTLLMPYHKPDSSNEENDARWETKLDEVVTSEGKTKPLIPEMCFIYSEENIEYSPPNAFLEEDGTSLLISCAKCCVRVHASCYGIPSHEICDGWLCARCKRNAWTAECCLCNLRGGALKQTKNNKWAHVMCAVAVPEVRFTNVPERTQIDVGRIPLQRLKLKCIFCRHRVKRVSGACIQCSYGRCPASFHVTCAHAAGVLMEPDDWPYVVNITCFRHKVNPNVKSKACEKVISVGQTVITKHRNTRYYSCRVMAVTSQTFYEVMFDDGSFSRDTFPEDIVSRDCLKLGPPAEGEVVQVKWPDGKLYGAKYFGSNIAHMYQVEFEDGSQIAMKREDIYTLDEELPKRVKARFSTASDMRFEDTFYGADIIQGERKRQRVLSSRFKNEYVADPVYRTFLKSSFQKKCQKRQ
# Sphingosine 1-phosphate receptor 1, sequence (P21453 whole entry): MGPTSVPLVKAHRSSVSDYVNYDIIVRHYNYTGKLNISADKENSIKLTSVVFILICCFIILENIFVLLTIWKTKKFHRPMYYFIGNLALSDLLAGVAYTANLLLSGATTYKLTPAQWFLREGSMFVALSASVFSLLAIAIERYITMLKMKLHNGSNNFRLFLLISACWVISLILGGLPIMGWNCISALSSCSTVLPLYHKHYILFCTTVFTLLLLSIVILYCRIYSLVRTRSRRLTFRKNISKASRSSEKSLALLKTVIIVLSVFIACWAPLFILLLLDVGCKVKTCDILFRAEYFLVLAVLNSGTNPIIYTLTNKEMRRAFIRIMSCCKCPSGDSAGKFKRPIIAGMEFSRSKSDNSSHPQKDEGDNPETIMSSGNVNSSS
# Nucleotide-binding oligomerization domain-containing protein 2, sequence (Q9HC29 whole entry, the tested form may be a part): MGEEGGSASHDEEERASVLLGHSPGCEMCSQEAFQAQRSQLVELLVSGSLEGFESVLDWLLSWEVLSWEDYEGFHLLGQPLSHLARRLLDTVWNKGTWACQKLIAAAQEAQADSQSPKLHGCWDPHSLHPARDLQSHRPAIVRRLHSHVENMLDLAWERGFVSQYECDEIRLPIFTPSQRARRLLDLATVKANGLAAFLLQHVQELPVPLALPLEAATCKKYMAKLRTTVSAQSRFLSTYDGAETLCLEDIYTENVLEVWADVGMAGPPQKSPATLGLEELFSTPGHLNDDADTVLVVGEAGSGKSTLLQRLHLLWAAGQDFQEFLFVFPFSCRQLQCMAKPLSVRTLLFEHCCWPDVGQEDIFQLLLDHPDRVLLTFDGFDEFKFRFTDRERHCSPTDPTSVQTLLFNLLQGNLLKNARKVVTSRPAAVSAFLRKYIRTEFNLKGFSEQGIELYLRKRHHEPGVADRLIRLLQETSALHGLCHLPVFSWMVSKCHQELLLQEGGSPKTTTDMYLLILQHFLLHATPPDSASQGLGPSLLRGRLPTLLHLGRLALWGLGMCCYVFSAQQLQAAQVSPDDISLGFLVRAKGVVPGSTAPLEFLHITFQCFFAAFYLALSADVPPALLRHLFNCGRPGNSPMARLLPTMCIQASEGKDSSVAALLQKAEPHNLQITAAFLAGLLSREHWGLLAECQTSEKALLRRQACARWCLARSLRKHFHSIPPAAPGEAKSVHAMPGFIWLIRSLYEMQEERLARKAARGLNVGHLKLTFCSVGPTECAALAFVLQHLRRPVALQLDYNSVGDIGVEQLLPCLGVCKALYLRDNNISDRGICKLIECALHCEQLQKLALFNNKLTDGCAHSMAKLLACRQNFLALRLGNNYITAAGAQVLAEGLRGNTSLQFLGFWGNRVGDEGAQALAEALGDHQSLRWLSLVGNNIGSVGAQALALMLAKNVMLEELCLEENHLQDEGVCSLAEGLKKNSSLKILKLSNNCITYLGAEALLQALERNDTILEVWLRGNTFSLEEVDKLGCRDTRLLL
# Tumor necrosis factor, sequence (P01375 whole entry): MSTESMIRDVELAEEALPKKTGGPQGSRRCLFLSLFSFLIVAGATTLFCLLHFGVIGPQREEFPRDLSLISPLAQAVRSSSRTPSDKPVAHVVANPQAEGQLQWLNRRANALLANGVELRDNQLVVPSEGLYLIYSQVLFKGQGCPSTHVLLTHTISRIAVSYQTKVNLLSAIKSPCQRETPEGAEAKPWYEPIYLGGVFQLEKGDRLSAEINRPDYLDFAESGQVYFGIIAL
# FAD-linked sulfhydryl oxidase ALR, sequence (P55789 whole entry): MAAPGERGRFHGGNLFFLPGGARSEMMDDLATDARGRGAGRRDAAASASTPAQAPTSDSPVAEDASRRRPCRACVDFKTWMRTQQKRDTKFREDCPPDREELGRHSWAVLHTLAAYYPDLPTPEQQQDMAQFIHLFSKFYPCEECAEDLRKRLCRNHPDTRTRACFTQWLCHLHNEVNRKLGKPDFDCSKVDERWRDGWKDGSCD
# Sphingosine 1-phosphate receptor 2, sequence (O95136 whole entry, the tested form may be a part): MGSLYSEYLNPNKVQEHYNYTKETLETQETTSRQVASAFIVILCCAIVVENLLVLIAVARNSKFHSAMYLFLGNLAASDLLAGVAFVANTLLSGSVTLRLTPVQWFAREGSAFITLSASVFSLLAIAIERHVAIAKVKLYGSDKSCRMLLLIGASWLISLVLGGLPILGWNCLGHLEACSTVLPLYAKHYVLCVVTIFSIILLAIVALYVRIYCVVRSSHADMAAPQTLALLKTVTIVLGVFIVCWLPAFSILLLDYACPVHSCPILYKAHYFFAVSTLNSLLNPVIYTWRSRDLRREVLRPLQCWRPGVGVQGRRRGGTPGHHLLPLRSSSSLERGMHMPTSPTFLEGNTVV
# Nucleotide-binding oligomerization domain-containing protein 1, sequence (Q9Y239 whole entry, the tested form may be a part): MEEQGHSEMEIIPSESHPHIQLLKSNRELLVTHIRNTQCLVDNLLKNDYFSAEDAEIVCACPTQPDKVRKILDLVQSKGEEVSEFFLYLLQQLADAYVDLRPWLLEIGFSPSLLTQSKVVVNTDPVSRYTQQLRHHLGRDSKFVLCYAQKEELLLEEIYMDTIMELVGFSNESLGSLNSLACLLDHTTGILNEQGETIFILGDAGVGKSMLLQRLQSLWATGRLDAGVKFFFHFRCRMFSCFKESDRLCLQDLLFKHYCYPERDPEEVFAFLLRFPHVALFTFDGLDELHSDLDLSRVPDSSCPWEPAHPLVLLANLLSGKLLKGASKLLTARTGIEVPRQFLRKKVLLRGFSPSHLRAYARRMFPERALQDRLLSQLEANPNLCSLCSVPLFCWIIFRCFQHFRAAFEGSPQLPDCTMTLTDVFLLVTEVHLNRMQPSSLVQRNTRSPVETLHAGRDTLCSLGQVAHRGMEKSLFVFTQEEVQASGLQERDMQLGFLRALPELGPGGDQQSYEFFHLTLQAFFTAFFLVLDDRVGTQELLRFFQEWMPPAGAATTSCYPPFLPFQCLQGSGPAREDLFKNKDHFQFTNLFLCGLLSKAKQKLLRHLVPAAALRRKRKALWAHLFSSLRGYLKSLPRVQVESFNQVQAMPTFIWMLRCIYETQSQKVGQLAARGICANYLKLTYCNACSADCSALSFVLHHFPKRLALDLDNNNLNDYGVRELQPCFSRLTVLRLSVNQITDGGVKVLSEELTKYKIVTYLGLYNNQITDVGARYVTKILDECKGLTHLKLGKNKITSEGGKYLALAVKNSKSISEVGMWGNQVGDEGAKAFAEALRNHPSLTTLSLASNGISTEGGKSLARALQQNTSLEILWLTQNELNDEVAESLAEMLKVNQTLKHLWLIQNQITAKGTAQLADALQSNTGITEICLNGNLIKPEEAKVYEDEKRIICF
# Sphingosine 1-phosphate receptor 3, sequence (Q99500 whole entry): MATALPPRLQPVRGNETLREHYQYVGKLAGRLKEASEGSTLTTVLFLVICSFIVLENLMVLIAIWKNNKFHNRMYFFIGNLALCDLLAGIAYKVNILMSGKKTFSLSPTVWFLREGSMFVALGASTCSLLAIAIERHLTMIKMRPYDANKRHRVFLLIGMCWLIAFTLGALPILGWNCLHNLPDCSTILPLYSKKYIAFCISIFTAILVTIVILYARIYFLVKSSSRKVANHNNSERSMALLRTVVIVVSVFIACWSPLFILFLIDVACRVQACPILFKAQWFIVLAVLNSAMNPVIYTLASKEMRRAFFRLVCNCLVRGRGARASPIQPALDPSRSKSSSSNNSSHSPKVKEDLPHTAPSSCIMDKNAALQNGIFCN
# Sphingosine 1-phosphate receptor 5, sequence (Q9H228 whole entry): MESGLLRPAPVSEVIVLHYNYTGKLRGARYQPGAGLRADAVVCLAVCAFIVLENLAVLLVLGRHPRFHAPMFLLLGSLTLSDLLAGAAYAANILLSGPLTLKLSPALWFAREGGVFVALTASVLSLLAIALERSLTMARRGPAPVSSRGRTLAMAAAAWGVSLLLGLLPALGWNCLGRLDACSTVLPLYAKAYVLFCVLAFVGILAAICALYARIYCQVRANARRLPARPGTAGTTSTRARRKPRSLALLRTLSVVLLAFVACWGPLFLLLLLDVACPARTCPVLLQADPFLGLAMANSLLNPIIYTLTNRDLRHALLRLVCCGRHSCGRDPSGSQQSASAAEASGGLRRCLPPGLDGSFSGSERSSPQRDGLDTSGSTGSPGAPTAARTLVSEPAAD
smiles,measurement,setting,value
Cc1ccccc1NC(=O)c1ccc(-c2cc(Cl)ccc2Cl)o1,IC50,[1],> 25 µM (inactive)
same,IC50,[2],> 25 µM (inactive)
same,IC50,[3],> 25 µM (inactive)
same,IC50,[4],0.393 µM (active)
same,IC50,[5],> 25 µM (inactive)
N#Cc1ccc(S(=O)(=O)n2c(N)nc3ccccc32)cc1,IC50,[6],> 20 µM (inactive)
same,IC50,Tumor necrosis factor,> 20 µM (inactive)
same,IC50,HEK293,> 20 µM (inactive)
same,IC50,[7],> 20 µM (inactive)
Oc1cc2c(cc1O)C(c1ccccc1)CNCC2 (stereo not drawn),EC50,[8],109 µM (active)
same,EC50,[9],24 µM (active)
same,AC50,[10],5.38 µM (active)
same,AC50,[11],15.2 µM (active)
